Here are results for one sequence from patent US12428455B2, “Dominant negative CEBPB and CEBPD proteins and methods of use for decreasing viability of neoplastic cells” (The Trustees of Columbia University in the City of New York, priority 2018, dated 2025).

No end group written: not given here.

Series [1] concerns BMF. Description: Apoptotic nuclei after BMF knockdown siRNA and CP-dn-CEBPD. Type of series: cell-based. Particulars: siRNA 2 days, then 20 μM peptide 2 days; T98G, MCF7, A375 and HCT116 cells. The method, then: T98G, MCF7, A375, and HCT116 cells were treated with one of two BMF knockdown siRNAs or control siRNA for 2 days, then treated with or without 20 μM CP-dn-CEBPD for 2 days. Cultures were assessed for % of apoptotic nuclei (n=6 random fields) (FIG. 36A, T98G; FIG. 36B, MCF7; FIG. 38C, A375; FIG. 36D, HCT116).

In series [2] the test system is HCT116 cells. Description: HCT116 subcutaneous tumors. Particulars: 20 mg/kg intraperitoneally. Type of series: in vivo, NCR nude mice. The method, then:
HCT116 cells were subcutaneously implanted in the flanks of NCR nude mice. After tumors formed, the animals were treated intraperitoneally with 20 mg/kg of CP-dn-CEBPD or vehicle as indicated in the schema shown FIG. 40A. Animal weight was monitored (FIG. 40). […] FIG. 40D compares calculated individual and mean tumor volumes for vehicle and CP-dn-CEBPD treated animals on day 11.

Series [3] deals with A375 xenograft tumors. In words: TUNEL staining of A375 xenograft tumors. The following applies: 20 mg/kg, retreated 2 days later, tumors harvested after additional 2 days. Type of series: in vivo, mice. The method, then: Subcutaneous A375 xenograft tumors were established in mice. When the tumors reached approximately 300 mm^3, randomly chosen animals were treated with vehicle or 20 mg/kg of CP-dn-CEBPD. The animals were retreated 2 days later and, after an additional 2 days, the animals were sacrificed, and the tumors harvested for histology and TUNEL staining to detect apoptosis. Results are presented in FIG. 42A (vehicle) and FIG. 42B (CP-dn-CEBPD).

For “RQIKIWFQNRRMKWKKLVELSAENEKLHQRVEQLTRDLAGLRQFFK [CP-DN-CEBPD]”, the “% of apoptotic nuclei with BMF knockdown siRNAs or control siRNA” value in series [1] is “kills cancer cells by upregulating pro-apoptotic BMF”. In addition, in series [2], the “side effects (animal weight monitored)” value is “no apparent side effects”. Besides, the animal survival entry in series [2] (endpoint morbid behavior or tumor >1000 mm^3) is given as “increased animal survival”. Moreover, in series [2] (to day 11), the “tumor growth (calculated tumor volumes)” value was “suppressed tumor growth”. Besides, in series [3], the “apoptosis of tumor cells (TUNEL staining)” value was “causes apoptosis of tumor cells in vivo”.
